Measured values from patent US12435059B2, “AMP-activated protein kinase inhibitors and methods of making and using the same” (The Regents of the University of Colorado, priority 2019, dated 2025).

Legend:
Assay in all cases: biochemical
Assay type in all cases: binding
468 kinases [1] = molecular target: 468 kinases (Homo sapiens, UniProt P51817); conditions: PRKX; read-out: % Inhibition @ 100 nM
468 kinases [2] = molecular target: 468 kinases (Homo sapiens, UniProt P10721, L576P); conditions: KIT(L576P); read-out: % Inhibition @ 100 nM
468 kinases [3] = molecular target: 468 kinases (Homo sapiens, UniProt Q9BX84); conditions: TRPM6; read-out: % Inhibition @ 100 nM
468 kinases [4] = molecular target: 468 kinases (Homo sapiens, UniProt Q9HAZ1); conditions: CLK4; read-out: % Inhibition @ 100 nM
468 kinases [5] = molecular target: 468 kinases (Homo sapiens, UniProt Q8N5S9); conditions: CAMKK1; read-out: % Inhibition @ 100 nM
468 kinases [6] = molecular target: 468 kinases (Homo sapiens, UniProt P07949, M918T); conditions: RET(M918T); read-out: % Inhibition @ 100 nM
468 kinases [7] = molecular target: 468 kinases (Homo sapiens, UniProt P25098); conditions: GRK2; read-out: % Inhibition @ 100 nM
468 kinases [8] = molecular target: 468 kinases (Homo sapiens, UniProt Q86V86); conditions: PIM3; read-out: % Inhibition @ 100 nM
468 kinases [9] = molecular target: 468 kinases (Homo sapiens, UniProt P32298); conditions: GRK4; read-out: % Inhibition @ 100 nM
468 kinases [10] = molecular target: 468 kinases (Homo sapiens, UniProt Q9BZL6); conditions: PRKD2; read-out: % Inhibition @ 100 nM
468 kinases [11] = conditions: for Number of kinases inhibited >90%: at 100 nM, of 468 kinases
468 kinases [12] = molecular target: 468 kinases (Homo sapiens, UniProt Q6P3R8); conditions: NEK5; read-out: % Inhibition @ 100 nM
468 kinases [13] = molecular target: 468 kinases (Homo sapiens, UniProt O60331); conditions: PIPSK1C; read-out: % Inhibition @ 100 nM
468 kinases [14] = molecular target: 468 kinases (Homo sapiens, UniProt Q16659); conditions: ERK3; read-out: % Inhibition @ 100 nM
468 kinases [15] = molecular target: 468 kinases (Homo sapiens, UniProt P31751); conditions: AKT2; read-out: % Inhibition @ 100 nM
468 kinases [16] = molecular target: 468 kinases (Homo sapiens, UniProt P45983); conditions: JNK1; read-out: % Inhibition @ 100 nM
468 kinases [17] = molecular target: 468 kinases (Homo sapiens, UniProt Q9NWZ3); conditions: TRAK4; read-out: % Inhibition @ 100 nM
468 kinases [18] = molecular target: 468 kinases (Homo sapiens, UniProt O15197); conditions: EPHB6; read-out: % Inhibition @ 100 nM
468 kinases [19] = molecular target: 468 kinases (Homo sapiens, UniProt O15146); conditions: MUSK; read-out: % Inhibition @ 100 nM
468 kinases [20] = molecular target: 468 kinases (Homo sapiens, UniProt Q9UPE1); conditions: SRPK3; read-out: % Inhibition @ 100 nM
468 kinases [21] = molecular target: 468 kinases (Homo sapiens, UniProt P00533, DEL752-759); conditions: EGFR(S752-1759del); read-out: % Inhibition @ 100 nM
468 kinases [22] = molecular target: 468 kinases (Homo sapiens, UniProt Q86UE8); conditions: TLK2; read-out: % Inhibition @ 100 nM
468 kinases [23] = molecular target: 468 kinases (Homo sapiens, UniProt Q9Y2H9); conditions: MAST1; read-out: % Inhibition @ 100 nM
468 kinases [24] = molecular target: 468 kinases (Homo sapiens, UniProt O14965); conditions: AURKA; read-out: % Inhibition @ 100 nM
468 kinases [25] = molecular target: 468 kinases (Homo sapiens, UniProt P36888, D835V); conditions: FLT3(D835V); read-out: % Inhibition @ 100 nM
468 kinases [26] = molecular target: 468 kinases (Homo sapiens, UniProt Q9Y6M4); conditions: CSNK1G3; read-out: % Inhibition @ 100 nM
468 kinases [27] = molecular target: 468 kinases (Homo sapiens, UniProt P00533, DEL746-750); conditions: EGFR(E746-A750del); read-out: % Inhibition @ 100 nM
468 kinases [28] = molecular target: 468 kinases (Homo sapiens, UniProt Q00532); conditions: CDKL1; read-out: % Inhibition @ 100 nM
468 kinases [29] = molecular target: 468 kinases (Homo sapiens, UniProt P48729); conditions: CSNK1A1; read-out: % Inhibition @ 100 nM
468 kinases [30] = molecular target: 468 kinases (Homo sapiens, UniProt P42336, E545A); conditions: PIK3CA(E545A); read-out: % Inhibition @ 100 nM
468 kinases [31] = molecular target: 468 kinases (Homo sapiens, UniProt Q02779); conditions: MLK2; read-out: % Inhibition @ 100 nM
468 kinases [32] = molecular target: 468 kinases (Homo sapiens, UniProt Q9UBE8); conditions: NLK; read-out: % Inhibition @ 100 nM

Row | SMILES | inhibition at 0.1 µM (468 kinases [1]) [%] | inhibition at 0.1 µM (468 kinases [2]) [%] | inhibition at 0.1 µM (468 kinases [3]) [%] | inhibition at 0.1 µM (468 kinases [4]) [%] | inhibition at 0.1 µM (468 kinases [5]) [%] | inhibition at 0.1 µM (468 kinases [6]) [%] | inhibition at 0.1 µM (468 kinases [7]) [%] | inhibition at 0.1 µM (468 kinases [8]) [%] | inhibition at 0.1 µM (468 kinases [9]) [%] | inhibition at 0.1 µM (468 kinases [10]) [%] | % Inhibition @ 100 nM (468 kinases [11]; EGFR(L747-E749del, A750P)) [%] | % Inhibition @ 100 nM (468 kinases [11]; EGFR(L747-S752del, P753S)) [%] | % Inhibition @ 100 nM (468 kinases [11]; EGFR(L747-T751del,Sins)) [%] | % Inhibition @ 100 nM (468 kinases [11]; FLT3(ITD)) [%] | % Inhibition @ 100 nM (468 kinases [11]; FLT3(ITD,D835V)) [%] | % Inhibition @ 100 nM (468 kinases [11]; FLT3(ITD,F691L)) [%] | Number of kinases inhibited >90% (468 kinases [11]) [kinases] | inhibition at 0.1 µM (468 kinases [12]) [%] | inhibition at 0.1 µM (468 kinases [13]) [%] | inhibition at 0.1 µM (468 kinases [14]) [%] | also measured
1 | CCN(CC)CCNC(=O)c1c(C)[nH]c(/C=C2\C(=O)Nc3ccc(CCC(N)=O)cc32)c1C [Compound No. 16, (Z)-5-((5-(3-Amino-3-oxopropyl)-2-oxoindolin-3-ylidene)methyl)-N-(2-(diethylamino)ethyl)-2,4-dimethyl-1H-pyrrole-3-carboxamide] | 9 | 12 | 29 | 96.2 | 28 | 68 | 48 | 0 | 72 | 16 | 27 | 5 | 11 | 97.2 | 100 | 100 | 33 | 19 | 15 | 9 | inhibition at 0.1 µM (468 kinases [15]): 0%; inhibition at 0.1 µM (468 kinases [16]): 7%; inhibition at 0.1 µM (468 kinases [17]): 68%; inhibition at 0.1 µM (468 kinases [18]): 34%; inhibition at 0.1 µM (468 kinases [19]): 15%; inhibition at 0.1 µM (468 kinases [20]): 77%; inhibition at 0.1 µM (468 kinases [21]): 19%; inhibition at 0.1 µM (468 kinases [22]): 23%; inhibition at 0.1 µM (468 kinases [23]): 30%; inhibition at 0.1 µM (468 kinases [24]): 41%; inhibition at 0.1 µM (468 kinases [25]): 100%; inhibition at 0.1 µM (468 kinases [26]): 5%; inhibition at 0.1 µM (468 kinases [27]): 7%; inhibition at 0.1 µM (468 kinases [28]): 26%; inhibition at 0.1 µM (468 kinases [29]): 27%; inhibition at 0.1 µM (468 kinases [30]): 10%; inhibition at 0.1 µM (468 kinases [31]): 7%; inhibition at 0.1 µM (468 kinases [32]): 8%
2 | CCN(CC)CCNC(=O)c1c(C)[nH]c(/C=C2\C(=O)Nc3ccc(CCO)cc32)c1C [Compound No. 10, (Z)—N-(2-(Diethylamino)ethyl)-5-((5-(2-hydroxyethyl)-2-oxoindolin-3-ylidene)methyl)-2,4-dimethyl-1H-pyrrole-3-carboxamide] | 0 | 88 | 0 | 95.5 | 15 | 65 | 0 | 8 | 79 | 0 | 0 | 23 | 37 | 99.3 | 99.15 | 100 | 28 | 0 | 32 | 0 | inhibition at 0.1 µM (468 kinases [15]): 4%; inhibition at 0.1 µM (468 kinases [16]): 9%; inhibition at 0.1 µM (468 kinases [17]): 68%; inhibition at 0.1 µM (468 kinases [18]): 0%; inhibition at 0.1 µM (468 kinases [19]): 28%; inhibition at 0.1 µM (468 kinases [20]): 88%; inhibition at 0.1 µM (468 kinases [21]): 14%; inhibition at 0.1 µM (468 kinases [22]): 0%; inhibition at 0.1 µM (468 kinases [23]): 40%; inhibition at 0.1 µM (468 kinases [24]): 0%; inhibition at 0.1 µM (468 kinases [25]): 100%; inhibition at 0.1 µM (468 kinases [26]): 6%; inhibition at 0.1 µM (468 kinases [27]): 32%; inhibition at 0.1 µM (468 kinases [28]): 31%; inhibition at 0.1 µM (468 kinases [29]): 14%; inhibition at 0.1 µM (468 kinases [30]): 3%; inhibition at 0.1 µM (468 kinases [31]): 18%; inhibition at 0.1 µM (468 kinases [32]): 5%
